According to patent US5407927A, “Treatment of mild depression and restoration of IGF-I levels in aging by dehydroepiandrosterone” (The Regents of the University of California, priority 1993, dated 1995):
Where two headings read alike, the source gives them in different places.

Legend:
Format in all cases: in vivo, human
[1] = tested on: insulin-like growth factor I (IGF-I); experiment: Serum insulin-like growth factor I (immunoassay); conditions: DHEA 50 mg, 3 months
Method: (§1) Blood specimens are drawn from patients immediately prior to the onset of DHEA administration and preferentially at 30 days after the beginning of treatment and at periodic intervals thereafter determined by the treating physician. Serum IGF-I and IGF BP-I levels are determined by immunoassay on these blood specimens. There are a variety of immunoassay methods available for determination of IGF-I and IGF BP-I which are reported in the literature and which are known to those of skill in the art. (Breier, B.H., et al., J. of Endocrinol., 1991, 128:347-357 and Pekonen, F. et al. J. Immunoassay, 1989, 10:325-337.
(§2) Seventeen women and 13 men ages 40-70 in good medical health were enrolled in a clinical trial of DHEA replacement of 6 months duration. The trial was structured as a double-blind randomized placebo-controlled crossover study. […] These subjects were seen monthly and received 50 mg DHEA orally, nightly for 3 months and placebo for 3 months.
(§3) Insulin-like growth factor I and insulin-like growth factor binding protein I were measured in serum specimens by immunoassay as described previously.

[2] = Self-reported libido (visual analog scale); conditions: end of 3 month DHEA period
Method: as §2
(§4) Libido was self-reported by the patients and scored on a visual analog scale. Subjects were evaluated at the end at the 3 month period of DHEA or placebo treatment.

[3] = tested on: insulin-like growth factor binding protein I (IGF BP-I); experiment: Serum insulin-like growth factor binding protein I (immunoassay); conditions: DHEA 50 mg, 3 months
Method: as §1, §2, §3

[4] = Glucose metabolism (euglycemic hyperinsulinemic clamp, rapid intravenous glucose tolerance test); conditions: DHEA 50 mg orally, nightly, 3 months, mean ± standard error
Method: as §2
(§5) Insulin sensitivity and glucose effectiveness were measured by euglycemic hyperinsulinemic clamp (Bergman, R.N. J. Clin. Invest., 1987, 79:790-800) and rapid intravenous glucose tolerance test (Bergman, R.N., et al. Amer. J. Physiol., 1979, 236:667-677) and % body fat as measured by bioelectric impedance (Lukaski, H. Amer. J. Nutrition, 1987, 46:537) were measured on all patients after DHEA of placebo treatment. The glucose disposal rate was also measured using Bergman, 1987 (supra).

[5] = Side effects and safety parameters (physical exams, hematology, chemistry) in clinical trial; conditions: 17 women and 13 men ages 40-70; 50 mg orally, nightly, 3 months
Method: as §2

[6] = tested on: testosterone, androstenedione, and dihydrotestosterone; experiment: Serum androgen levels during oral DHEA (immunoassay); conditions: 50 mg DHEA orally, nightly
Method: (§6) FIG. 2: Hormonal levels during DHEA (50 mg) therapy (represented by stippled area) in men and women. ADIONE (androstenedione); TEST (testosterone); DHT(dihydrotestosterone); SHBG(sex-hormone binding globulin). The shaded area represents the duration of DHEA treatment.
as §2
(§7) Blood specimens were drawn from all subjects in the study at baseline (time 0) and at 2 weeks and 12 weeks after DHEA administration, and at 2 weeks after DHEA administration was discontinued. DHEA, DHEAS, androstenedione, testosterone, dihydrotestosterone, and the sex hormone binding globulin were all measured by immunoassay as described by Anderson, D.C., et al. Steroid, 1976, 28:179.
(§8) Serum levels of testosterone, androstenedione, and dihydrotestosterone, as well as the sex-hormone binding globulin are shown in FIG. 2.

[7] = Serum apolipoproteins (immunoassay); conditions: DHEA (50 mg) × 3 months, mean ± standard error
Method: as §2
(§9) Serum cholesterol, triglycerides, apolipoproteins A1 and B, and the HDL and LDL lipoproteins were measured on all serum specimens. Cholesterol, triglycerides, HDL and LDL were measured by standard enzymatic methods. (Allain, C.A., et al., Clin. Chem. 1974, 20:470.) Apolipoproteins were measured by immunoassay methods. Immunoassay methods for measurement of apolipoproteins are described in the literature. […] All other lipid or lipoprotein levels were unchanged by the DHEA administration.

[8] = Serum cholesterol, triglycerides, HDL and LDL (standard enzymatic methods); conditions: for CHOLESTEROL / HDL / LDL / TG: DHEA (50 mg) × 3 months, mean ± standard error
Method: as §2, §9

[9] = Sense of well-being or mood-elevating effect (question to subjects); conditions: DHEA 50 mg, 3 months
Method: as §2
Sense of well-being or mood-elevating effect was reported in response to a question: "Have you noted any effect, good or bad during this treatment?
as §4

[10] = Pharmacokinetic study comparing oral and sublingual administration of DHEA; conditions: for Tmax: human, serum, read-out: time to peak levels of DHEA
Method: FIG. 5: Hormonal levels in men and women after oral 50 mg DHEA (.cndot. and sublingual 50 mg. DHEA (.smallcircle. ).
A pharmacokinetic study comparing oral and sublingual administration of DHEA was performed on the men and women subjects. DHEA, DHEAS, androstenedione, testosterone and dihydrotestosterone were measured by the immunoassay methods described above on serum specimens drawn at 30 minutes, 1 hour, 2 hours, 4 hours, 5 hours and 8 hours after dose administration. […] Peak levels of DHEA were achieved within 30 minutes with the sublingual route and 3 hours with the oral route.

[11] = Serum DHEA and DHEAS levels during oral DHEA (immunoassay)
Method: FIG. 1: DHEAS and DHEA serum levels in men and women at baseline, 2 and 12 weeks of DHEA (50 mg) administration and 2 weeks after discontinuation. The horizontal solid line represents mean level during the second decade of life.
as §2, §7, §8

[12] = Body composition (% body fat by bioelectric impedance, BMI); conditions: DHEA 50 mg orally, nightly, 3 months, mean ± standard error
Method: The term "BMI" means body mass index which is body weight (kg)/height (m^2).
as §2, §5

[13] = tested on: sex-hormone binding globulin; experiment: Serum sex-hormone binding globulin during oral DHEA (immunoassay); conditions: 50 mg DHEA orally, nightly
Method: as §6, §2, §7, §8

In the case of `C[C@]12CC[C@H](O)CC1=CC[C@@H]1[C@@H]2CC[C@]2(C)C(=O)CC[C@@H]12` [DHEA, dehydroepiandrosterone], the “IGF-I (change, in words)” value ([1]; men and women) is reported as “statistically significant elevation”, the “free IGF-I (change, in words)” value ([1]; men and women, inferred from IGF-I and IGF BP-I) is reported as “overall increase in free IGF-I” and the IGF-I increase ([1]; men) is reported as 10%. For the same compound, the IGF-I increase ([1]; women) was 12%, the self-reported libido [2] was “no difference was seen while subjects were on DHEA” and the “IGF BP-I (change, in words)” value ([3]; men and women) was “decrease”. The “IGF BP-I decrease” value ([3]; men) was 12%, the “IGF BP-I decrease” value ([3]; women) was 22% and the “GLUCOSE DISPOSAL RATE” value ([4]; men) was 7.64 ± 0.056 mg/kg/min. For the same compound, the “GLUCOSE EFFECTIVENESS” value ([4]; men) was 0.019 ± 0.001 min⁻¹, the “INSULIN SENSITIVITY” value ([4]; men) was 3.69 ± 0.5 × 10^-4 min^-1 uU^-1 ml and the “GLUCOSE EFFECTIVENESS” value ([4]; women) was 0.024 ± 0.002 min⁻¹. The “INSULIN SENSITIVITY” value ([4]; women) was 2.90 ± 0.4 × 10^-4 min^-1 uU^-1 ml, the “Safety parameters (physical exams, hematology, chemistry)” value [5] was “all within normal limits” and the side effects [5] was “No side effects were reported”. For the same compound, the “androgens, particularly dihydrotestosterone and estrogens” value ([6]; men) was “no changes in any androgens”, the “androgen levels (testosterone, androstenedione, dihydrotestosterone)” value ([6]; women) was “doubling of their androgen levels” and the “APO A1” value ([7]; men) was 167.4 ± 6.1. The “APO B” value ([7]; men) was 149.8 ± 8.5, the “APO A1” value ([7]; women) was 213.7 ± 8.1 and the “APO B” value ([7]; women) was 137.4 ± 5.9. The CHOLESTEROL ([8]; men) was 209.9 ± 9.4, the HDL ([8]; men) was 44.8 ± 1.7 and the LDL ([8]; men) was 147.5 ± 8.5. For the same compound, the TG ([8]; men) was 107.7 ± 10.5, the “all other lipid or lipoprotein levels (change, in words)” value ([8]; women and men, DHEA 50 mg, 3 months) was “unchanged” and the “HDL levels (change, in words)” value ([8]; women, DHEA 50 mg, 3 months) was “Only a small reduction in HDL levels were seen in women”. The CHOLESTEROL ([8]; women) was 218.3 ± 6.9, the HDL ([8]; women) was 63.4 ± 2.7 and the LDL ([8]; women) was 136.0 ± 4.9. For the same compound, the TG ([8]; women) was 94.2 ± 7.4, the mood-elevating effect ([9]; majority of both men and women, in retrospect) was “An impressive mood-elevating effect was noted in retrospect by the majority of both men and women” and the “responses to question on effect noted during treatment” value ([9]; men and women) was “"sleeping better" "better ability to handle stress" "more relaxed", "easier time falling asleep", "more energy" and "better moods"”. The “rate of absorption, sublingual versus oral” value ([10]; 50 mg, men and women) was “absorbed most rapidly sublingually”, the Tmax ([10]; oral 50 mg) was at most 3 h and the Tmax ([10]; sublingual 50 mg) was at most 0.5 h. For the same compound, the “blood levels of DHEA” value ([11]; adults 40-80 years old, 50 to 100 mg orally or sublingually daily, FIG. 1) was “in the physiological range for younger adults”, the “DHEAS serum levels (maintenance)” value ([11]; men and women, 50 mg DHEA orally, nightly, three month trial) was “maintained throughout the three month trial” and the “DHEAS serum levels (rise)” value ([11]; men and women, 50 mg DHEA orally, nightly, within 2 weeks of administration) was “rose to those levels seen in the second decade of life within 2 weeks of administration”. For the same compound, the “time for DHEAS levels to return to baseline after discontinuing DHEA” value ([11]; men and women, after discontinuing 50 mg DHEA) was at most 2 weeks, the “% FAT” value ([12]; men) was 21.9 ± 1.3% and the BMI ([12]; men) was 27.0 ± 0.7 kg/m^2. For the same compound, the “% FAT” value ([12]; women) was 31.3 ± 1.0%, the BMI ([12]; women) was 24.7 ± 0.7 kg/m^2 and the “Sex-hormone binding globulin level” value [13] was “a trend of decline but this decline was not statistically significant”.
